In patent publication US20260174839A1, “PN[…] OTHER VACCINES P[…] SAPONIN ADJUVANT” (priority 2022, published 2026):

Tests used:
Assay type in all cases: in vivo
[1] = test system: Streptococcus pneumoniae serotype 3; experiment: Opsonophagocytosis assay of serum of immunized mice, serotype 3; conditions: PCV13 plus QS-21 vs PCV13 plus VSA-1
Experimental: (§1) BALB/c mice used in this study were purchased from the Jackson Laboratory and maintained within an environmentally controlled, pathogen-free animal facility at the University of Alabama at Birmingham (UAB). Each human dose of PCV13 (trade name Prevnar 13 by Pfizer) is available in 0.5 mL single-dose pre-filled syringes. Groups of female BALB/c mice (8-10 weeks of age, six per group) were immunized via the subcutaneous route (s.c.) with saline, PCV 13 (50 μL), PCV13 (50 μL) plus QS-21 (20 μg), or PCV13 (50 μL) plus VSA-1 (100 μg) on days 0, 14 and 28. Serum samples were collected prior to the first immunization and at 2 weeks following the last immunization. Equal volumes of the six sera in each group were pooled together to create serum pools for each group. The serum was obtained after centrifugation and stored at −20° C. until assayed. All studies were performed according to National Institutes of Health guidelines, and protocols were approved by the UAB Institutional Animal Care and Use Committee.
(§2) Opsonophagocytosis assay for serotypes 3, 4, 6B, 9V, 14, 19A, and 19F was performed using a 4-fold multiplexed opsonization assay described in the literature. […] Opsonic indices were determined as the interpolated serum dilution that kills 50% of bacteria. […]

[2] = test system: Streptococcus pneumoniae serotype 9V; experiment: Opsonophagocytosis assay of serum of immunized mice, serotype 9V; conditions: PCV13 plus QS-21 vs PCV13 plus VSA-1
Experimental: as §1, §2

[3] = test system: Streptococcus pneumoniae serotype 14; experiment: Opsonophagocytosis assay of serum of immunized mice, serotype 14; conditions: adjuvant added to PCV13 vs PCV13 alone; BALB/c mice
Experimental: as §1, §2

[4] = test system: Streptococcus pneumoniae serotype 19F; experiment: Opsonophagocytosis assay of serum of immunized mice, serotype 19F; conditions: PCV13 plus QS-21 vs PCV13 plus VSA-1
Experimental: as §1, §2

[5] = test system: Streptococcus pneumoniae serotypes 3, 4, 6B, 9V, 14, 19A, and 19F; experiment: Opsonophagocytosis assay, several serotypes together; conditions: adjuvant added to PCV13 vs PCV13 alone, BALB/c mice
Experimental: as §1, §2

[6] = test system: Streptococcus pneumoniae seven serotypes (3, 4, 6B, 9V, 14, 19A and 19F); experiment: IgG subclass pneumococcal antibody ELISA, seven serotypes together (average, summary); conditions: adjuvant added to PCV13; BALB/c mice
Experimental: Four groups of female BALB/c mice (6 per group) were immunized with normal saline, one tenth human dose of PCV13, PCV13+VSA-1, and PCV13-QS21 on days 0, 14 […]. QS21 is another saponin adjuvant. Blood samples were obtained on day 42. IgG subclass of pneumococcal antibodies in the pooled serum samples of each group were determined with pneumococcal antibody ELISA for seven serotypes (3, 4, 6B, 9V, 14, 19A and 19F) using enzyme-conjugated antibodies against mouse IgG1, IgG2a or IgG3.

QS-21
opsonic titer, QS-21 superior to VSA-1, serotype 3 [1]: 1.3 fold
opsonic titer, QS-21 superior to VSA-1, serotype 9V [2]: 2.4 fold
increase of PCV13-induced opsonic titers, serotype 14 [3]: 14.9 fold
opsonic titer, QS-21 superior to VSA-1, serotype 19F [4]: 1.2 fold
increase of PCV13-induced opsonic titers [5]: 1.9-4.9 fold
IgG1, IgG2a and IgG3 antibodies titers against seven selected serotypes [6]: boosted
